Patent US20240352066A1, “ANTIMICROBIAL COMPOUNDS AND THE METHOD OF USE” (priority 2021, published 2024)
In brackets after ≈: the same amount, converted by molar mass. Where a SMILES comes first, the peptide text is derived from it. [ ]: non-standard residue; d: D form. N(tridecyl)Gly = CCCCCCCCCCCCCNCC(=O)O; Gly(N-2-aminoethyl) = NCCNCC(=O)O; Gly(N-cHex) = O=C(O)CNC1CCCCC1; Nlys = NCCCCNCC(=O)O

Key:
in vitro = format: cell-based, human; details: human
Description: (§1) Hepatocellular carcinoma (HepG2), mouse fibroblast (3T3), human lung (HPL1A), and human keratinocyte (HaCat) cells were cultured in Dulbecco modified eagle media (DMEM) containing 10% fetal bovine serum (FBS) and 1% penicillin, streptomycin, and glutamine (PSG) at 37° C. and 5% CO2. Cells were collected and adjusted to […] to 4×10^5 cells/mL in phenol-red free DMEM and plated (100 μL) 96 well plates. 2-fold serial dilutions of 10× peptoid (11.1 μL) were added to each well in triplicate. Water (vehicle) was used as a negative control. Plates were incubated at 37° C. in 5% CO2 for 72 hours. Thiazolyl blue tetrazolium bromide (MTT) was added to each well (5 mg/mL; 20 μL) and incubated for 3 hours. Media was removed, DMSO (100 μL) was added, and plates were incubated at 37° C. for 10 minutes. Plates were read on a SpectraMax M5 plate reader (Abs. 570 nm). The concentration of compound resulting in a 50% reduction in growth compared to control (toxicity dose 50%; TD50) was determined using GraFit. This procedure was repeated three times on separate days.

HPL1A lung cells = assay: in vitro; format: cell-based, human
Description: as §1

HaCat keratinocyte cells = assay: in vitro; format: cell-based, human
Description: as §1

A. baumannii = format: cell-based, Acinetobacter baumannii; details: 24 h
Description: The minimum inhibitory concentration (MIC) of peptoids against the ESKAPE bacteria (Enterococcus faecium ATCC 6569; Staphylococcus aureus ATCC 29213; Klebsiella pneumoniae ATCC 13883; Acinetobacter 55aumannii ATCC 19606; Pseudomonas aeruginosa ATCC 25619; Enterococcus faecalis ATCC 29212; and Escherichia coli ATCC 25922) was determined following CLSI guidelines (CLSI. Methods for Dilution Antimicrobial Susceptibility Tests for Bacteria That Grow Aerobically, 11th Edition. (Clinical and Laboratory Standards Institute, 2018). The MIC against Mycobacterium smegmatis was also determined following CLSI guidelines (Woods et al., Susceptibility Testing of Mycobacteria, Nocardiae, and Other Aerobic Actinomycetes, 2nd edition. (2011)). Colonies picked from streaked tryptic soy agar plates were added to tryptic soy broth (TSB) to achieve a turbidity of OD600=0.08-0.15. Inoculant was diluted 1:200 into cation adjust Mueller Hinton Broth (CAVHB) and 90 μL was plated into each well of a 96 well black-wall plate. […] Following incubation for the ESKAPE bacteria, PrestoBlue (10 μL) was added to each well and incubated at 37° C. for one hour before measuring fluorescence on a SpectraMax M5 plate reader (Ex. 555 nm; Em. 585 nm). Following incubation for M. smegmatis, wells were scored following CLSI guidelines to determine MIC. […]

C. neoformans [1] = assay: microbe, parasite or virus in culture; format: cell-based, Cryptococcus neoformans; details: 72 h
Description: Cell solution was diluted into RPMI-MOPS (1:100) followed by another dilution into RPMI-MOPS (1:20). […] Plates were incubated for 72 hours at 35° C. MIC was determined as the lowest concentration of individual compound or combined compounds inhibiting pathogen growth. Fractional inhibitory concentration index (FICi) was determine using the following equation: FICi values were interpreted as follows: FICi<0.5 synergistic; 0.5≤FICi≤4 indifferent; FICi>4 antagonist (Johnson et al., Antimicrob. Agents Chemother. 48, 693-715 (2004)).

C. neoformans [2] = system: C. neoformans

Compound: CCCCCCCCCCCCCNCC(=O)N(CC(=O)N(CCCCN)CC(=O)N(CCN)CC(=O)N(CC(N)=O)C1CCCCC1)C1CCCCC1 [RMG8-8, Ntri-Ncha-Nlys-Nae-Ncha] (H-[N(tridecyl)Gly][Gly(N-cHex)][Nlys][Gly(N-2-aminoethyl)][Gly(N-cHex)]-NH2)
- CC50 at 72 h (in vitro; HPL1A lung cells): 74 ± 8 µg/mL (≈ 97 µM)
- CC50 at 72 h (in vitro; HaCat keratinocyte cells): 54 ± 10 µg/mL (≈ 70.8 µM)
- TD50 HPL1A (HPL1A lung cells): 74 µg/mL
- TD50 HaCat (HaCat keratinocyte cells): 54 µg/mL
- MIC A. baumannii (A. baumannii): 25 µg/mL (≈ 32.8 µM)
- MIC (compound alone) (C. neoformans [1]): 1.56 µg/mL
- MIC C. neoformans after incubation with human serum (C. neoformans [2]): 3.13 µg/mL
- MIC C. neoformans, stock not incubated with human serum (C. neoformans [2]): 1.56 µg/mL
